Assay results taken from publication PMC13313556, “Development and characterization of triazole-based WDR5 inhibitors for the treatment of glioblastoma” (JCI Insight, 2026).
Read-outs that look alike come from different tables or passages of the source.

What was measured:
[1] = In vivo intraperitoneal plasma:brain level (PBL) studies; set-up: species or system mice; conditions: for Kp: male
Protocol: In Vivo Intraperitoneal Plasma:Brain Level (PBL) Studies
Core (RMPC) at the Vanderbilt University Medical Center (VUMC) Metabolic Physiology Shared Resource Core (MPSR). The studies were performed according to guidelines […]
approved by the Institutional Animal Care and Use Committee (IACUC) of VUMC following the guidance of the Association for Assessment and Accreditation of Laboratory Animal Care (AAALAC). Male CD-1 mice (Charles River Laboratories, Wilmington, MA) were overnight fasted on the evening prior to study. On the morning of study mice were weighed and allowed to acclimate to the room for at least 30 minutes prior to dosing.
Food was returned 3 hr after intraperitoneal dosing. At time zero IP of test article was given (20% β-HPCD, 1-10 mg/mL with addition of 1N HCl per molar equivalent of test article, N=8 mice, two per timepoint). At 0.5, 1, 3, and 6 h post-dose, mice were placed into a plane of anesthesia using Isoflurane. A terminal blood sample was collected via cardiac puncture followed by immediate euthanasia and brain collection. Brain was washed with cold PBS or Saline, blotted dry on a piece of gauze, weighed, and flash frozen in liquid nitrogen. Whole blood was centrifuged at 5000 x g for 5 minutes and plasma was removed into a fresh tube for storage. All samples were stored at -80 °C until shipment on dry ice for bioanalysis at Q2 Solutions. […]
conducted at Medicilon Inc. DMPK (CRO, Shanghai) using a similar protocol as above using modified timepoints (5 min, 15 min, 30 min, 1, 3, and 8 h), male ICR mice, and a […]
cyclodextrin). The blood was taken via submandibular vein or other suitable vein, 0.03 mL/time point. Samples were placed in tubes containing K2-EDTA and stored on ice until centrifuged. The blood samples were centrifuged at 6800 x g for 6 minutes at 2-8°C within 1h after collection and stored frozen at -80°C. After blood sample collection, the brain was removed, rinsed with saline, dried with filter paper, placed into labeled EP tubes (1 tube/tissue/animal/time point, and frozen at -80°C prior to bioanalysis. The analytical […]
results were validated using a calibration curve to lower limit of quantification of 2 ng/mL for parent analyte with tolbutamide as an internal standard. […]

[2] = tested on: WIN-site dependent transcripts; assay: Bulk RNA-seq in L0 and DI318 CSCs; type: cell-based, human; conditions: for GSEA NES against MV4:11 C16-regulated gene set: 72 hours
Protocol: Bulk RNA-seq was performed at MedGenome Inc. using the Illumina Stranded mRNA Library Prep Kit and sequencing at 20M paired-end read-depth on a NovaSeq 6000 (PE100). The raw bulk RNA-seq paired end (R1-R2, 2 × 100 bp) sequencing fastq data was first subjected to the quality check analysis using FastQC (v0.11.9). […] Further, quality filtered reads were subjected to the alignment employing Rsubread (v2.16.1) align function with human genome reference build GRCh38 ([90], [91]). The mapped binary alignment map (BAM) files were indexed using samtools (v1.16.1) ([92]), and gene-wise read counts were summarized applying featureCounts function from Rsubread, where inbuilt hg38 annotation was used and duplicated reads were ignored. Furthermore, gene symbols were obtained using org.Hs.eg.db (v3.15.0) annotation package operating on ENTREZIDs from count table. Respectively, edgeR (v3.38.4) and limma-voom (v3.52.4) packages were employed to accomplish differential transcriptional regulation analysis ([93]–[95]). Briefly, constructed DGEList object (DGEList function), design matrix (model.design), and contrast matrix (makeContrasts) was defined, filtered low counts (filterByExpr), and trimmed mean of M-values (TMM) normalization (calcNormFactors) was done. Later, log2 counts per million reads (logCPM) transformation, model fitting and differential expression analysis was performed using limma-voom (voomWithQualityWeights, lmFit, contrasts.fit), empirical Bayes moderated t-statistics (eBayes), and TREAT method (treat, decideTests, topTreat) considering log fold-change (logFC) (0.5) threshold. Genes with |log2FC| > 0.5 and FDR adjusted P value cutoff (≤0.01) were considered as differentially expressed genes (DEGs). Gene ontology (GO) and pathway enrichment analysis was accomplished implementing ShinyGO (v0.77) ([96]). DEGs volcano plots were depicted utilizing EnhancedVolcano (v1.16.0) package.

L2 CSCs = assay: 7-day CTG viability assay (GI50, cross-titrations, irradiation) in L2; type: cell-based, human; conditions: for GI50: Homo sapiens
Protocol: For GI50 determination, compounds were stamped in technical triplicate, while for synergy cross-titrations dose-response matrices were prepared in technical duplicate. Different CSC lines, grown in suspension as spheroids, were split with Accutase and seeded directly on top of the prestamped compounds (50 μL of NBMc and 700 cells/well). The outer 4 rows (A,B and O,P row IDs) and 4 columns (1,2 and 23,24 column IDs) were filled with 80 μL of PBS to minimize evaporation. Cells were incubated with compounds for 7 days at 37°C/5% CO2 prior to the addition of 25 μL/well Cell-Titer Glo (Promega) and luminescence quantification on a Revvity EnVision plate reader. […] For the cross-titrations of 2 compounds, synergy scores were calculated using the MuSyC webserver ([79]). […]
antagonist (p53 activator) RG7112 following either 0 Gy or 2 Gy irradiation. Mean values are presented from a single biological replicate conducted in technical triplicate. Follow- […]
Cell viability was quantified as described in the Materials and Methods four days post-irradiation (seven days total). The

[3] = MDCK passive permeability; type: in vitro ADME, canine; conditions: dog, MDCK
[4] = L2, 0 Gy, read-out: log(GI50) (converted)
[5] = L2, 7-day CTG, pGI50 = −log10[GI50(M)], read-out: pGI50 (converted)
[6] = CD-1 (C3TD343), ICR (C3TD078), mouse, brain, intraperitoneal, 100 mg/kg, 100 mg/kg i.p., mice, read-out: P:B

## COc1cc(CN2CCc3c(cc(Cn4ccn(C)c4=N)cc3-c3ccc(F)cc3C)C2=O)cc(OC)c1 [C16, reference compound]
[1]; 10 mg/kg IP, male mice
  Cmax brain: 0.102 µM
[1]; 10 mg/kg IP, male mice, 6 hrs interval
  AUC brain: 0.357 µM·h
[1]; CD-1, mouse, brain, 10 mg/kg IP, male mice, read-out: Tmax brain
  Tmax: 30 min
[1]; CD-1, mouse, plasma, 10 mg/kg IP, male mice
  Cmax: 14.2 µM
[1]; CD-1, mouse, plasma, 10 mg/kg IP, male mice, 6 hrs interval
  AUC: 11.9 µM·h
[1]; CD-1, mouse, plasma, 10 mg/kg IP, male mice, read-out: Tmax plasma
  Tmax: 30 min
[1]; CD-1, mouse, brain, ip, 10 mg/kg, C16 10 mg/kg IP, male mice, read-out: brain/plasma ratio P:B (AUC)
  Kp: < 0.05
[2]; DI318, 200 nM
  GSEA NES against MV4:11 C16-regulated gene set: –2.5
[2]; L0, 200 nM
  GSEA NES against MV4:11 C16-regulated gene set: –2.0
L2 CSCs; [4]
  GI50: 2e-06 M
L2 CSCs; [5]
  GI50: 3.98e-06 M
L2 CSCs; L2 + RAD (2 Gy)
  log(GI50): -5.7 M
[3]
  Papp A→B: 0.1 ×10⁻⁶ cm/s

## COc1cc(Cn2nnc3c2CCc2c-3cc(Cn3ccnc3C)cc2C2CC2)ccc1F [C3TD343]
[1]; 100 mg/kg i.p., mice
  total brain AUC: 2.9 µM·h
  total brain Cmax: 2.4 µM
[1]; i.p., mice
  duration of brain exposure: less than 4 hours
[1]; [6]
  Kp: 0.25
L2 CSCs; L2 + RAD (2 Gy), read-out: log(GI50) (converted)
  GI50: 7.94e-06 M
L2 CSCs; [5]
  GI50: 6.31e-06 M
[3]
  Papp A→B: 5.2 ×10⁻⁶ cm/s
[3]; favorable permeability
  Papp A→B: > 2 ×10⁻⁶ cm/s

## COc1cc(Cn2nnc3c2CCc2c(-c4cn(C)nc4C(F)(F)F)cc(Cn4ccnc4C)cc2-3)cc(OC)c1 [C3TD078]
[1]; [6]
  Kp: < 0.05
[2]; DI318, 200 nM, 72 hours (118/150)
  C16 DEGs also downregulated by C3TD078: 79%
[2]; L0, 200 nM, 72 hours (91/102)
  C16 DEGs also downregulated by C3TD078: 89%
L2 CSCs; [4]
  GI50: 5.01e-06 M
L2 CSCs; [5]
  GI50: 3.98e-06 M
[3]
  Papp A→B: 4.9 ×10⁻⁶ cm/s
[3]; favorable permeability
  Papp A→B: > 2 ×10⁻⁶ cm/s
